{
  "source": "patent US20240261296A1",
  "about": "“THERAPEUTIC MODALITIES FOR INHIBITING PANCREATIC BETA CELL IMPAIRMENT AND TREATING DIABETES” (Hadasit Medical Research Serices & Development Ltd., priority 2021, published 2024)",
  "system": "human islets β-cells",
  "assay": "glucose-stimulated insulin secretion and insulin content in palmitate-treated human islets",
  "assay_type": "cell-based",
  "details": "palmitic acid 0.3 mM, 48 hr, donors 1 and 2",
  "procedure": "Determination of glucose-stimulated insulin secretion (GSIS) and content: To determine acute insulin release in response to glucose stimulation, islets were washed with Krebs-Ringer bicarbonate buffer pH 7.4, containing 10 mM HEPES and 0.5% bovine serum albumin (KRBH), and pre-incubated for 2 hrs in the same buffer containing 3.3 mM glucose. The buffer was then discarded and replaced with fresh KRBH containing 3.3 mM glucose, and the islets incubated for 1 hour for basal insulin secretion, followed by additional 1 hour incubation in KRBH containing 16.7 mM glucose. The supernatants were collected, centrifuged at 900 rpm and insulin was determined by Rat or Human insulin radioimmunoassay (RIA) kits (Linco Research, St. Charles, MO) according to the Manufacturer's instructions. […] The acidic ethanol eluates were collected and the amount of insulin determined by ELISA.\nELISA Assay: Insulin was extracted from the intracellular storage granules in human islets cells using a lysis buffer (Ethanol-HCl). The extract was analysed by a specific ELISA (Mercodia) which is a solid phase two-site enzyme immunoassay based on the sandwich technique, in which two monoclonal antibodies are directed against separate antigenic determinants on the insulin molecule. […]",
  "data": [
    {"compound": "CC[C@@H]1CC[C@H](C)N1C(=O)c1cccc(NS(=O)(=O)c2ccc(C)c(F)c2)c1", "note": "[Compound C13, N-(3-((2R,5S)-2-ethyl-5-methylpyrrolidine-1-carbonyl)phenyl)-3-fluoro-4-methylbenzenesulfonamide]", "values": [
      {"measurement": "restoring glucose-stimulated insulin secretion", "setting": "16.7 mM glucose", "result": "more potent than L-798106"},
      {"measurement": "restoring insulin content", "result": "more potent than L-798106"}
    ]}
  ]
}
